pIC50: −log10 of the molar value.
biological target: T1, KRAS G12C protein (Homo sapiens, UniProt P01116, G12C); assay: ERK protein phosphorylation assay (p-ERK) in H358 cells; type: cell-based; design: scale not given here; conditions: H358 cells expressing KRAS G12C protein, 3 h incubation with compound; read-out: IC50, inhibiting phosphorylation of KRAS G12C protein-mediated downstream signaling (p-ERK)
T1 construct: H358 cells (ATCC, CRL-5807) expressing KRAS G12C protein; host or cells: H358 (NCI-H358) cells
Description: The cells were cultured in a 5% CO2 cell incubator for 16 h. The serially diluted compound was added to the cell medium with Echo550 at a final DMSO concentration of 0.5%, and the incubation was continued for 3 h. Then 8% paraformaldehyde (Solarbio, P1112) was added at 40 μL/well, followed by incubation at room temperature for 20 min. After one washing with PBS, cold 100% methanol was added at 40 μL/well for permeabilization for 10 min. […] Washing with PBST was performed 3 times, with 2 min of incubation for each washing. […] Washing with PBST was performed 3 times, with 2 min of incubation for each washing. Finally, the cell culture plate was inverted and centrifuged at 1000 rpm for 1 min, after which fluorescence signals were read using Odyssey CLx.

T1 sequence (P01116 1-188 isoform P01116-2 G12C): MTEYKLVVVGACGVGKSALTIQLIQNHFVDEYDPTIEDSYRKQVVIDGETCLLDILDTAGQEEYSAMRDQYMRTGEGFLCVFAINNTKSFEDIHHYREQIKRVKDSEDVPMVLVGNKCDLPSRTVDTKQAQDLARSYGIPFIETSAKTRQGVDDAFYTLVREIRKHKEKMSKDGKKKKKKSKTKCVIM

| pIC50 | SMILES |
| --- | --- |
| > 6.00 | [2H]C([2H])([2H])c1cccc2cccc(N3CCc4c(nc(OC[C@@H]5CCCN5C)nc4N4CCN(C(=O)C(=C)F)[C@@H](CC#N)C4)C3)c12 [Compound 2, 2-((S)-1-(2-fluoroacryloyl)-4-(7-(8-(methyl-d3)naphthalen-1-yl)-2-(((S)-1-methylpyrrolidin-2-yl)methoxy)-5,6,7,8-tetrahydropyrido[3,4-d]pyrimidin-4-yl)piperazin-2-yl)acetonitrile] |
| > 6.00 | [2H]C([2H])([2H])c1cccc2cccc(N3CCc4c(nc(OC[C@@H]5CCCN5C)nc4N4CCN(C(=O)/C=C/CNC5CC5)[C@@H](C)C4)C3)c12 [Compound 3, (E)-4-(cyclopropylamino)-1-((S)-2-methyl-4-(7-(8-(methyl-d3)naphthalen-1-yl)-2-(((S)-1-methylpyrrolidin-2-yl)methoxy)-5,6,7,8-tetrahydropyrido[3,4-d]pyrimidin-4-yl)piperazin-1-yl)-2-buten-1-one] |
| > 6.00 | [2H]C([2H])([2H])c1cccc2cncc(N3CCc4c(nc(OC[C@@H]5CCCN5C)nc4N4CCN(C(=O)C=C)[C@@H](CC#N)C4)C3)c12 [Compound 4, 2-((S)-1-acryloyl-4-(7-(5-(methyl-d3)isoquinolin-4-yl)-2-(((S)-1-methylpyrrolidin-2-yl)methoxy)-5,6,7,8-tetrahydropyrido[3,4-d]pyrimidin-4-yl)piperazin-2-yl)acetonitrile] |
| > 6.00 | [2H]C([2H])([2H])c1cccc2cccc(N3CCc4c(nc(OC[C@@H]5CCCN5C)nc4N4CCN(C(=O)C(=C)F)[C@@H](C)C4)C3)c12 [Compound 5, 2-fluoro-1-((S)-2-methyl-4-(7-(8-(methyl-d3)naphthalen-1-yl)-2-(((S)-1-methylpyrrolidin-2-yl)methoxy)-5,6,7,8-tetrahydropyrido[3,4-d]pyrimidin-4-yl)piperazin-1-yl)-2-propen-1-one] |
| > 6.00 | C=CC(=O)N1CCN(c2nc(OC[C@@H]3CCCN3C)nc3c2CCN(c2cccc4cccc([11CH3])c24)C3)C[C@@H]1CC#N [Compound 6, 2-((S)-1-acryloyl-4-(7-(8-(methyl-^11C)naphthalen-1-yl)-2-(((S)-1-methylpyrrolidin-2-yl)methoxy)-5,6,7,8-tetrahydropyrido[3,4-d]pyrimidin-4-yl)piperazin-2-yl)acetonitrile] |
| > 6.00 | [2H]C([2H])([2H])c1cccc2cccc(N3CCc4c(nc(OC[C@@H]5CCCN5C)nc4N4CCN(C(=O)C(=C)F)C[C@@H]4C)C3)c12 [Compound 7, 2-fluoro-1-((S)-3-methyl-4-(7-(8-(methyl-d3)naphthalen-1-yl)-2-(((S)-1-methylpyrrolidin-2-yl)methoxy)-5,6,7,8-tetrahydropyrido[3,4-d]pyrimidin-4-yl)piperazin-1-yl)-2-propen-1-one] |
| > 6.00 | [2H]C([2H])([2H])c1cccc2cccc(N3CCc4c(nc(OC[C@@H]5CCCN5C)nc4N4CCN(C(=O)C=C)C[C@@H]4C)C3)c12 [Compound 8, 1-((S)-3-methyl-4-(7-(8-(methyl-d3)naphthalen-1-yl)-2-(((S)-1-methylpyrrolidin-2-yl)methoxy)-5,6,7,8-tetrahydropyrido[3,4-d]pyrimidin-4-yl)piperazin-1-yl)-2-propen-1-one] |
| > 6.00 | C=C(F)C(=O)N1CCN(c2nc(OC[C@@H]3CCCN3C)nc3c2CCN(c2cccc4cccc([11CH3])c24)C3)C[C@@H]1CC#N [Compound 9, 2-((S)-1-(2-fluoroacryloyl)-4-(7-(8-(methyl-^11C)naphthalen-1-yl)-2-(((S)-1-methylpyrrolidin-2-yl)methoxy)-5,6,7,8-tetrahydropyrido[3,4-d]pyrimidin-4-yl)piperazin-2-yl)acetonitrile] |
| > 6.00 | C=CC(=O)N1CCN(c2nc(OC[C@@H]3CCCN3C)nc3c2CCN(c2cccc4cccc([13CH3])c24)C3)C[C@@H]1CC#N [Compound 10, 2-((S)-1-acryloyl-4-(7-(8-(methyl-^13C)naphthalen-1-yl)-2-(((S)-1-methylpyrrolidin-2-yl)methoxy)-5,6,7,8-tetrahydropyrido[3,4-d]pyrimidin-4-yl)piperazin-2-yl)acetonitrile] |
| > 6.00 | C=C(F)C(=O)N1CCN(c2nc(OC[C@@H]3CCCN3C)nc3c2CCN(c2cccc4cccc([13CH3])c24)C3)C[C@@H]1CC#N [Compound 11, 2-((S)-1-(2-fluoroacryloyl)-4-(7-(8-(methyl-^13C)naphthalen-1-yl)-2-(((S)-1-methylpyrrolidin-2-yl)methoxy)-5,6,7,8-tetrahydropyrido[3,4-d]pyrimidin-4-yl)piperazin-2-yl)acetonitrile] |
| > 6.00 | C=CC(=O)N1CCN(c2nc(OC[C@@H]3CCCN3C)nc3c2CCN(c2cccc4cccc([14CH3])c24)C3)C[C@@H]1CC#N [Compound 12, 2-((S)-1-acryloyl-4-(7-(8-(methyl-^14C)naphthalen-1-yl)-2-(((S)-1-methylpyrrolidin-2-yl)methoxy)-5,6,7,8-tetrahydropyrido[3,4-d]pyrimidin-4-yl)piperazin-2-yl)acetonitrile] |
| > 6.00 | C=C(F)C(=O)N1CCN(c2nc(OC[C@@H]3CCCN3C)nc3c2CCN(c2cccc4cccc([14CH3])c24)C3)C[C@@H]1CC#N [Compound 13, 2-((S)-1-(2-fluoroacryloyl)-4-(7-(8-(methyl-^14C)naphthalen-1-yl)-2-(((S)-1-methylpyrrolidin-2-yl)methoxy)-5,6,7,8-tetrahydropyrido[3,4-d]pyrimidin-4-yl)piperazin-2-yl)acetonitrile] |
| > 6.00 | C=C(F)C(=O)N1CCN(c2nc(OC[C@@H]3CCCN3C)nc3c2CCN(c2cncc4cccc([14CH3])c24)C3)C[C@@H]1CC#N [Compound 14, 2-((S)-1-(2-fluoroacryloyl)-4-(7-(5-(methyl-^14C)isoquinolin-4-yl)-2-(((S)-1-methylpyrrolidin-2-yl)methoxy)-5,6,7,8-tetrahydropyrido[3,4-d]pyrimidin-4-yl)piperazin-2-yl)acetonitrile] |
| > 6.00 | C=CC(=O)N1CCN(c2nc(OC[C@@H]3CCCN3C)nc3c2CCN(c2cncc4cccc([13CH3])c24)C3)C[C@@H]1CC#N [Compound 15, 2-((S)-1-acryloyl-4-(7-(5-(methyl-^13C)isoquinolin-4-yl)-2-(((S)-1-methylpyrrolidin-2-yl)methoxy)-5,6,7,8-tetrahydropyrido[3,4-d]pyrimidin-4-yl)piperazin-2-yl)acetonitrile] |
| > 6.00 | C=C(F)C(=O)N1CCN(c2nc(OC[C@@H]3CCCN3C)nc3c2CCN(c2cncc4cccc([13CH3])c24)C3)C[C@@H]1CC#N [Compound 16, 2-((S)-1-(2-fluoroacryloyl)-4-(7-(5-(methyl-^13C)isoquinolin-4-yl)-2-(((S)-1-methylpyrrolidin-2-yl)methoxy)-5,6,7,8-tetrahydropyrido[3,4-d]pyrimidin-4-yl)piperazin-2-yl)acetonitrile] |
| > 6.00 | [2H]C([2H])([2H])N1CCC[C@H]1COc1nc2c(c(N3CCN(C(=O)/C=C/CNC4CC4)[C@@H](CC#N)C3)n1)CCN(c1cccc3cccc(C)c13)C2 [Compound 19, 2-((S)-1-((E)-4-(cyclopropylamino)-2-butenoyl)-4-(2-(((S)-1-(methyl-d3)pyrrolidin-2-yl)methoxy)-7-(8-methylnaphthalen-1-yl)-5,6,7,8-tetrahydropyrido[3,4-d]pyrimidin-4-yl)piperazin-2-yl)acetonitrile] |
| > 6.00 | [2H]C([2H])([2H])N1CCC[C@H]1COc1nc2c(c(N3CCN(C(=O)C=C)[C@@H](CC#N)C3)n1)CCN(c1cncc3cccc(Cl)c13)C2 [Compound 20, 2-((S)-1-acryloyl-4-(7-(5-chloroisoquinolin-4-yl)-2-(((S)-1-(methyl-d3)pyrrolidin-2-yl)methoxy)-5,6,7,8-tetrahydropyrido[3,4-d]pyrimidin-4-yl)piperazin-2-yl)acetonitrile] |
| > 6.00 | [2H]C([2H])([2H])c1cccc2cccc(N3CCc4c(nc(OC[C@@H]5CCCN5C([2H])([2H])[2H])nc4N4CCN(C(=O)C=C)[C@@H](C)C4)C3)c12 [Compound 21, 1-((S)-2-methyl-4-(7-(8-(methyl-d3)naphthalen-1-yl)-2-(((S)-1-(methyl-d3)pyrrolidin-2-yl)methoxy)-5,6,7,8-tetrahydropyrido[3,4-d]pyrimidin-4-yl)piperazin-1-yl)-2-propen-1-one] |
| > 6.00 | [2H]C([2H])([2H])N1CCC[C@H]1COc1nc2c(c(N3CCN(C(=O)C=C)[C@@H](CC#N)C3)n1)CCN(c1cccc3cccc([11CH3])c13)C2 [Compound 22, 2-((S)-1-acryloyl-4-(2-(((S)-1-(methyl-d3)pyrrolidin-2-yl)methoxy)-7-(8-(methyl-^11C)naphthalen-1-yl)-5,6,7,8-tetrahydropyrido[3,4-d]pyrimidin-4-yl)piperazin-2-yl)acetonitrile] |
| > 6.00 | [2H]C([2H])([2H])c1cccc2cccc(N3CCc4c(nc(OC[C@@H]5CCCN5C([2H])([2H])[2H])nc4N4CCN(C(=O)C(=C)F)C[C@@H]4C)C3)c12 [Compound 23, 2-fluoro-1-((S)-3-methyl-4-(7-(8-(methyl-d3)naphthalen-1-yl)-2-(((S)-1-(methyl-d3)pyrrolidin-2-yl)methoxy)-5,6,7,8-tetrahydropyrido[3,4-d]pyrimidin-4-yl)piperazin-1-yl)-2-propen-1-one] |
| > 6.00 | [2H]C([2H])([2H])c1cccc2cccc(N3CCc4c(nc(OC[C@@H]5CCCN5C([2H])([2H])[2H])nc4N4CCN(C(=O)C=C)C[C@@H]4C)C3)c12 [Compound 24, 1-((S)-3-methyl-4-(7-(8-(methyl-d3)naphthalen-1-yl)-2-(((S)-1-(methyl-d3)pyrrolidin-2-yl)methoxy)-5,6,7,8-tetrahydropyrido[3,4-d]pyrimidin-4-yl)piperazin-1-yl)-2-propen-1-one] |
